Data published in US11442057B2, “Method for screening anticancer agent inhibiting binding of AIMP2-DX2 and HSP70” (MEDICINAL BIOCONVERGENCE RESEARCH CENTER, priority 2016, dated 2022).

Key:
[1] = test system: H460 cells xenograft; assay: H460 xenograft in Balb/c nude mice; format: in vivo
Method: After the end of the experiment, the tumors were separated and weighed. The body weight and tumor size of the experimental animals were measured twice a week.

[2] = test system: A549 (Lung cancer cells); assay: MTT assay of cell activity in A549 lung cancer cells; format: cell-based; conditions: 2.5, 5, 10, 20, 40 uM
[3] = test system: WI-26 (Normal lung cells); assay: MTT assay of cell activity in WI-26 normal lung cells; conditions: 2.5, 5, 10, 20, 40 uM
[4] = test system: 293T cells overexpressing Strep-AIMP2-DX2; assay: MTT assay of cell growth by AIMP2-DX2 in 293T cells overexpressing Strep-AIMP2-DX2; format: cell-based; conditions: inhibitors 12 hours or si-HSP70
Method: The HSP70 inhibitors Pifithrin-u (PES), and VER155008 (VER) and the HSP90 inhibitors Geldanamycin (Gel) and PUH71(Pu) were treated on 293T cells overexpressing Strep-AIMP2-DX2 and 293T cells not over-expressing, respectively for 12 hours, and MTT (Amresco) assay was performed. Each experiment was performed three times independently. Strep-AIMP2-DX2 was overexpressed in 293T cells, in which HSP70 expression was reduced using HSP70-specific si-RNA (si-HSP70), and MTT assay was performed. Each experiment was performed three times independently.

[5] = test system: AIMP2-DX2 protein; assay: Western blot of AIMP2-DX2 protein expression level in H460 cells; format: cell-based, human; conditions: HSP70 or HSP90 inhibitor treatment

Compound	growth of cancer cells (tumor volume) ([1]; 50 mg/kg, 5 times a week, 10 times in total, compared with Taxol 15 mpk)	tumor weight ([1]; 50 mg/kg, tumors separated and weighed at end of experiment)	body weight of mice ([1]; during the course of the experiment)	effect on lung cancer cell A549 (cell activity, MTT) [2]	effect on normal lung cell WI-26 (cell activity, MTT) [3]	increase in cell growth by AIMP2-DX2 [4]	expression level of AIMP2-DX2 protein after inhibitor treatment [5]
Cc1ccc(S(=O)(=O)N[C@@H](Cc2c[nH]c3ccccc23)C(=O)Nc2ccc(N3CCOCC3)cc2)cc1 [BC-DXI-495]	inhibited to a degree similar to that of the control group Taxol	tumor suppressive effect was also confirmed in the tumor weight	no effect on the body weight	only lung cancer cells induce apoptosis	without any effect on normal cells	–	–
NS(=O)(=O)C#Cc1ccccc1 [PES, Pifithrin-u]	–	–	–	–	–	No increase in cell growth by AIMP2-DX2 was observed	decreased
CC(C)NCCCn1c(Sc2cc3c(cc2I)OCO3)nc2c(N)ncnc21 [PU, PUH71]	–	–	–	–	–	–	not affected
N#Cc1ccc(COC[C@H]2O[C@@H](n3c(NCc4ccc(Cl)c(Cl)c4)nc4c(N)ncnc43)[C@H](O)[C@@H]2O)cc1 [VER, VER155008]	–	–	–	–	–	No increase in cell growth by AIMP2-DX2 was observed	decreased
